# Read-outs that look alike come from different tables or passages of the source.
# Tests used:
# Human ACC2 = Human ACC2 (Homo sapiens, UniProt O00763); assay: In vitro ACC2 inhibition assay (ADP-Glo), human ACC2; assay type: biochemical; conditions: 5 nM ACC2, 20 μM ATP, 20 μM acetyl-CoA
# Candida glabrata = assay: In vitro antifungal assay (broth microdilution, Micromyx), C. glabrata; assay type: cell-based; conditions: Nakaseomyces glabratus, ATCC90030, strain 0635 ATCC 90030, 35° C., approximately 24-48 hr
# Description: (§1) Compounds of the present invention were also assayed in an in vitro antifungal assay against Candida glabrata, Candida tropicalis, and Aspergillus fumigatus, performed by Micromyx, a representative procedure of which follows. The test organisms were reference strains acquired from the American Type Culture Collection (ATCC). Upon receipt, the isolates were streaked onto Sabouraud Dextrose Agar (SDA). Colonies were harvested from these plates and a cell suspension was prepared in Sabouraud Dextrose Broth (Becton Dickinson, Sparks, Md.) containing cryoprotectant. Aliquots were then frozen at −80° C. Prior to the assay, the frozen seeds of all yeast isolates to be tested in that session were thawed and streaked for isolation onto SDA and incubated overnight at 35° C. All fungal isolates were previously streaked on SDA and incubated at 35° C. until spore formation occurred, followed by harvesting of the spores in sterile 0.85% saline and enumeration. The spore preps were stored at 4° C. Yeast and fungal isolates were tested in RPMI medium (Catalog No. SH30011.04; Lot No. AYB60287A; HyClone Labs, Logan, Utah) buffered with 0.165 M MOPS (Catalog No. 475898; Lot No. D00165859; CalBiochem, La Jolla, Calif.). The pH of the medium was adjusted to 7.0 with 1 N NaOH, sterile filtered using a 0.2 μm PES filter, and stored at 4° C. until used. All of the above media was prepared and stored according to guidelines from the Clinical and Laboratory Standards Institute (CLSI; 2-4). The broth microdilution assay method essentially followed the procedure described by CLSI (2-4) and employed automated liquid handlers to conduct serial dilutions and liquid transfers. Automated liquid handlers included the Multidrop 384 (Labsystems, Helsinki, Finland) and Biomek 2000 (Beckman Coulter, Fullerton Calif. The wells in columns 2-12 in standard 96-well microdilution plates (Costar 3795) were filled with 150 μl of the correct diluent. These would become the ‘mother plates’ from which ‘daughter’ or test plates would be prepared. The drugs (300 μL at 40× the desired top concentration in the test plates) were dispensed into the appropriate well in Column 1 of the mother plates. The Biomek 2000 was used to make serial two-fold dilutions through Column 11 in the “mother plate”. The wells of Column 12 contained no drug and were the organism growth control wells. The daughter plates were loaded with 185 μL per well of the appropriate test media using the Multidrop 384. The daughter plates were prepared using the Biomek FX which transferred 5 μL of drug solution from each well of a mother plate to the corresponding well of the correct daughter plate in a single step. A standardized inoculum of each organism was prepared per CLSI methods (2-4). For yeast isolates, colonies were picked from the primary plate and a suspension was prepared to equal a 0.5 McFarland turbidity standard. Suspensions were then diluted 1:100 in RPMI 1640 medium, resulting in a final inoculum concentration of 0.5-2.5×10^3 CFU/mL per test well. […] Standardized inoculum suspensions were transferred to compartments of sterile reservoirs divided by length (Beckman Coulter), and the Biomek 2000 was used to inoculate all plates. Daughter plates were placed on the Biomek 2000 in reverse orientation so that plates were inoculated from low to high drug concentration. The Biomek 2000 delivered 10 μL of standardized inoculum into each well of the appropriate daughter plate for an additional 1:20 dilution. Thus, the wells of the daughter plates ultimately contained 185 μL of the appropriate media, 5 μL of drug solution, and 10 μL of inoculum. The final concentration of DMSO (if used as a solvent) in the test well was 2.5%. Plates were stacked 3 high, covered with a lid on the top plate, placed into plastic bags, and incubated at 35° C. for approximately 24-48 hr for all yeast isolates, and 48 hr for all fungal isolates. Plates were viewed from the bottom using a plate viewer. […]
# Candida tropicalis = assay: In vitro antifungal assay (broth microdilution, Micromyx), C. tropicalis; assay type: cell-based; conditions: ATCC90874, strain 0636 ATCC 90874, 35° C., approximately 24-48 hr
# Description: as §1
# Aspergillus fumigatus = assay: In vitro antifungal assay (broth microdilution, Micromyx), A. fumigatus; assay type: cell-based; conditions: 48 hr
# Description: as §1
# C. albicans ATCC 90028 = assay: Anti-Fungal Activity Assay (broth microtiter MIC), C. albicans; assay type: cell-based, Candida albicans; conditions: Candida albicans, ATCC90028, 48 h, 3 replicates; MIC recorded at 48 h; read-out: MIC C. albicans ATCC 90028
# Method in brief: (§2)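 MIC taken as visual growth inhibition versus the growth control, mostly at 48 h (soraphen also at 24 h). Following CLSI M27-A3, colonies grown overnight at 35° C on Sabouraud dextrose agar were suspended in RPMI 1640+MOPS; test agents came from 1 mg/mL DMSO stocks.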
# C. krusei ATCC 6258 = assay: Anti-Fungal Activity Assay (broth microtiter MIC), C. krusei; assay type: cell-based, Candida krusei; conditions: Pichia kudriavzevii, ATCC6258, 48 h, 3 replicates; MIC recorded at 48 h; read-out: MIC C. krusei ATCC 6258
# Method in brief: as §2
# [1] = system: C. parapsilosis ATCC 22019; assay: Anti-Fungal Activity Assay (broth microtiter MIC), C. parapsilosis; assay type: cell-based, Candida parapsilosis; conditions: Lodderomyces parapsilosis, ATCC22019, 48 h, 3 replicates; MIC recorded at 48 h; read-out: MIC C. parapsilosis ATCC 22019
# Method in brief: as §2
# [2] = compound concentration 10 ppm, foliar spray, evaluated 7 days after inoculation
# Botrtyis cinerea (Bc) = assay: Growth inhibition assay of fungal pathogens, Bc; assay type: cell-based; conditions: 48 hours; read-out: Concentration at 90% Inhibition, Bc
# Method in brief: (§3)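 Spores in 17% V8 liquid medium were exposed to compound at final 50, 10 and 2 ppm or 2, 0.4 and 0.08 ppm with 2% DMSO. After 48 h, OD600 (blank-subtracted) and visual ratings were compared with the 2% DMSO control to give percent growth inhibition.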
# [3] = system: Collectotrichum graminicola (Cg); assay: Growth inhibition assay of fungal pathogens, Cg; assay type: cell-based; conditions: 48 hours; read-out: Concentration at 90% Inhibition, Cg
# Method in brief: as §3
# Diplodia maydis (Dm) = assay: Growth inhibition assay of fungal pathogens, Dm; assay type: cell-based; conditions: Stenocarpella maydis; 48 hours; read-out: Concentration at 90% Inhibition, Dm
# Method in brief: as §3
# [4] = system: Fusarium moniliforme (Fm); assay: Growth inhibition assay of fungal pathogens, Fm; assay type: cell-based; conditions: Fusarium verticillioides; 48 hours; read-out: Concentration at 90% Inhibition, Fm
# Method in brief: as §3
# [5] = system: Fusarium virguliforme (Fv); assay: Growth inhibition assay of fungal pathogens, Fv; assay type: cell-based; conditions: 48 hours, read-out: Concentration at 90% Inhibition, Fv
# Method in brief: as §3
# [6] = system: Phytophthora capsici (Pc); assay: Growth inhibition assay of fungal pathogens, Pc; assay type: cell-based; conditions: 48 hours, read-out: Concentration at 90% Inhibition, Pc
# Method in brief: as §3
# Rhizoctonia solani (Rs) = assay: Growth inhibition assay of fungal pathogens, Rs; assay type: cell-based; conditions: 48 hours, read-out: Concentration at 90% Inhibition, Rs
# Septoria tritici (St) = assay: Growth inhibition assay of fungal pathogens, St; assay type: cell-based; conditions: Zymoseptoria tritici; 48 hours; read-out: Concentration at 90% Inhibition, St
# Method in brief: as §3
# [7] = system: Blumeria graminis f sp. hordei; assay: Foliar protection test, barley powdery mildew control; assay type: in vivo, Blumeria graminis f sp. hordei on Hordeum vulgare cv. Perry; conditions: 168 h, compound concentration 50 ppm, foliar spray, evaluated 7 days after inoculation, read-out: Barley Powdery Mildew Control at 50 ppm
# Method in brief: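 Barley cv. Perry at first true leaf (6 days) sprayed to wetness on both leaf sides with compound in 5% acetone/0.005% Tween 80, typically at 200, 100, 50, 10 or 2 ppm. Inoculated 24 h later by shaking spores from colonized plants; kept at 20-22 °C, 70% RH. Mildew colonization scored 7 days later as percent control.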
# Fungal ACC2 = Fungal ACC2 (UniProt Q00955); conditions: read-out: Fungal ACC2 (IC50, in vitro ACC2 inhibition)
# [8] = strain 5280 ATCC MYA-3626, 35° C., read-out: MIC, A. fumigatus 5280 ATCC MYA-3626
# [9] = strain 6781 ATCC MYA-4609, 35° C., read-out: MIC, A. fumigatus 6781 ATCC MYA-4609
# Chain of Fungal ACC2 (Q00955 whole entry): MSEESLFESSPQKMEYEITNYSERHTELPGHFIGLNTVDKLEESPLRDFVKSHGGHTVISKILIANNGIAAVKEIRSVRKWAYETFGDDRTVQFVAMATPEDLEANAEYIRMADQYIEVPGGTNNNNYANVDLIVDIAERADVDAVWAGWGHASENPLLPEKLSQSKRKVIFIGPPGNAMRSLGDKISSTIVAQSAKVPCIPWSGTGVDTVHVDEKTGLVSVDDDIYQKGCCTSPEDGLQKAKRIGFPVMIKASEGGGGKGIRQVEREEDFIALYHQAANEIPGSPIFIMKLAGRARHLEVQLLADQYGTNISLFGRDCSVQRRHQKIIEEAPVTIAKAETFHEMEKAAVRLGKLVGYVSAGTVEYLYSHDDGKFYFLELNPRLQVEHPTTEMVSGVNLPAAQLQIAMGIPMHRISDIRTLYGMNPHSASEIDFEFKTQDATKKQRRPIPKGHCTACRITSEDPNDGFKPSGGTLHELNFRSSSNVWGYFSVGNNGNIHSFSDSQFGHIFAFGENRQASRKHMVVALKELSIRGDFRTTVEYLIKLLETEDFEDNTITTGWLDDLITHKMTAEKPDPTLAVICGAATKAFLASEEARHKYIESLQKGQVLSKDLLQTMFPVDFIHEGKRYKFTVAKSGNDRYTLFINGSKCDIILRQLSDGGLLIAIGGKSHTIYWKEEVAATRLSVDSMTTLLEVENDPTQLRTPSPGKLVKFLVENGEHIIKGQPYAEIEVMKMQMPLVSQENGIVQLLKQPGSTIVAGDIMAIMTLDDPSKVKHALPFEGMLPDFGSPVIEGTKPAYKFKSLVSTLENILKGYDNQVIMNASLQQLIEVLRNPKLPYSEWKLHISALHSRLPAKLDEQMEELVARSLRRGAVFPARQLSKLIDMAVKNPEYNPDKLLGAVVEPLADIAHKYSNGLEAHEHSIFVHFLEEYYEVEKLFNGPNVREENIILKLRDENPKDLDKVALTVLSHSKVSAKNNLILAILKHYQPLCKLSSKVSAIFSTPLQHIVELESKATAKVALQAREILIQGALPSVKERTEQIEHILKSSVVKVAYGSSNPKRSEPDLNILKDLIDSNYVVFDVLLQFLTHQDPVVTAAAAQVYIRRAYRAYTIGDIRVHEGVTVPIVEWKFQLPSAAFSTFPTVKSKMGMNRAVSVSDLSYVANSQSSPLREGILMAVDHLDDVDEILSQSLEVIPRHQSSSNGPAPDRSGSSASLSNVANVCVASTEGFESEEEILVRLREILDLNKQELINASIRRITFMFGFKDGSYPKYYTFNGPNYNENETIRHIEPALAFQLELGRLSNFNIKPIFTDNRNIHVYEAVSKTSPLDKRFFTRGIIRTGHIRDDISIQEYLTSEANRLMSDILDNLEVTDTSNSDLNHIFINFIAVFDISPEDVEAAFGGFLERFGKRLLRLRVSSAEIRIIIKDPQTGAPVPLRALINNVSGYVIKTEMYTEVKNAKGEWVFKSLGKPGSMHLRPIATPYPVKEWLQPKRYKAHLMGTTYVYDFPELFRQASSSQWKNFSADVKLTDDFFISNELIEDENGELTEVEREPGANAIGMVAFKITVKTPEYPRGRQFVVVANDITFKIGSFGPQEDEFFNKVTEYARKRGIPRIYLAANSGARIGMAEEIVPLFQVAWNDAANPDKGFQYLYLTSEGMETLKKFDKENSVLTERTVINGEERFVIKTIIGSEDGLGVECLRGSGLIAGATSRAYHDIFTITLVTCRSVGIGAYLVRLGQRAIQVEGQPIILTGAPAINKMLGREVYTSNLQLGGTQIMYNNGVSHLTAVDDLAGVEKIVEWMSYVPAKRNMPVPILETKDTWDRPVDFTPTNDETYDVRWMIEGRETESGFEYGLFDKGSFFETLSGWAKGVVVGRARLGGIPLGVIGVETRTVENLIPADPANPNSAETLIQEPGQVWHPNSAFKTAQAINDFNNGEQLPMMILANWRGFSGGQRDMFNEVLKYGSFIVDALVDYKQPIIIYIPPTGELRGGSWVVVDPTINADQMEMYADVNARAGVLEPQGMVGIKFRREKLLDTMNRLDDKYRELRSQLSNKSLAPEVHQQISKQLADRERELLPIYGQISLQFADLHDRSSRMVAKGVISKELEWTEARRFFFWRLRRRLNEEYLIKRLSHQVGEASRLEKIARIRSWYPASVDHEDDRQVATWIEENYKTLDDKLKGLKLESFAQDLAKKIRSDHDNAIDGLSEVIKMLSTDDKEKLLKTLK
# Chain of Human ACC2 (O00763 whole entry): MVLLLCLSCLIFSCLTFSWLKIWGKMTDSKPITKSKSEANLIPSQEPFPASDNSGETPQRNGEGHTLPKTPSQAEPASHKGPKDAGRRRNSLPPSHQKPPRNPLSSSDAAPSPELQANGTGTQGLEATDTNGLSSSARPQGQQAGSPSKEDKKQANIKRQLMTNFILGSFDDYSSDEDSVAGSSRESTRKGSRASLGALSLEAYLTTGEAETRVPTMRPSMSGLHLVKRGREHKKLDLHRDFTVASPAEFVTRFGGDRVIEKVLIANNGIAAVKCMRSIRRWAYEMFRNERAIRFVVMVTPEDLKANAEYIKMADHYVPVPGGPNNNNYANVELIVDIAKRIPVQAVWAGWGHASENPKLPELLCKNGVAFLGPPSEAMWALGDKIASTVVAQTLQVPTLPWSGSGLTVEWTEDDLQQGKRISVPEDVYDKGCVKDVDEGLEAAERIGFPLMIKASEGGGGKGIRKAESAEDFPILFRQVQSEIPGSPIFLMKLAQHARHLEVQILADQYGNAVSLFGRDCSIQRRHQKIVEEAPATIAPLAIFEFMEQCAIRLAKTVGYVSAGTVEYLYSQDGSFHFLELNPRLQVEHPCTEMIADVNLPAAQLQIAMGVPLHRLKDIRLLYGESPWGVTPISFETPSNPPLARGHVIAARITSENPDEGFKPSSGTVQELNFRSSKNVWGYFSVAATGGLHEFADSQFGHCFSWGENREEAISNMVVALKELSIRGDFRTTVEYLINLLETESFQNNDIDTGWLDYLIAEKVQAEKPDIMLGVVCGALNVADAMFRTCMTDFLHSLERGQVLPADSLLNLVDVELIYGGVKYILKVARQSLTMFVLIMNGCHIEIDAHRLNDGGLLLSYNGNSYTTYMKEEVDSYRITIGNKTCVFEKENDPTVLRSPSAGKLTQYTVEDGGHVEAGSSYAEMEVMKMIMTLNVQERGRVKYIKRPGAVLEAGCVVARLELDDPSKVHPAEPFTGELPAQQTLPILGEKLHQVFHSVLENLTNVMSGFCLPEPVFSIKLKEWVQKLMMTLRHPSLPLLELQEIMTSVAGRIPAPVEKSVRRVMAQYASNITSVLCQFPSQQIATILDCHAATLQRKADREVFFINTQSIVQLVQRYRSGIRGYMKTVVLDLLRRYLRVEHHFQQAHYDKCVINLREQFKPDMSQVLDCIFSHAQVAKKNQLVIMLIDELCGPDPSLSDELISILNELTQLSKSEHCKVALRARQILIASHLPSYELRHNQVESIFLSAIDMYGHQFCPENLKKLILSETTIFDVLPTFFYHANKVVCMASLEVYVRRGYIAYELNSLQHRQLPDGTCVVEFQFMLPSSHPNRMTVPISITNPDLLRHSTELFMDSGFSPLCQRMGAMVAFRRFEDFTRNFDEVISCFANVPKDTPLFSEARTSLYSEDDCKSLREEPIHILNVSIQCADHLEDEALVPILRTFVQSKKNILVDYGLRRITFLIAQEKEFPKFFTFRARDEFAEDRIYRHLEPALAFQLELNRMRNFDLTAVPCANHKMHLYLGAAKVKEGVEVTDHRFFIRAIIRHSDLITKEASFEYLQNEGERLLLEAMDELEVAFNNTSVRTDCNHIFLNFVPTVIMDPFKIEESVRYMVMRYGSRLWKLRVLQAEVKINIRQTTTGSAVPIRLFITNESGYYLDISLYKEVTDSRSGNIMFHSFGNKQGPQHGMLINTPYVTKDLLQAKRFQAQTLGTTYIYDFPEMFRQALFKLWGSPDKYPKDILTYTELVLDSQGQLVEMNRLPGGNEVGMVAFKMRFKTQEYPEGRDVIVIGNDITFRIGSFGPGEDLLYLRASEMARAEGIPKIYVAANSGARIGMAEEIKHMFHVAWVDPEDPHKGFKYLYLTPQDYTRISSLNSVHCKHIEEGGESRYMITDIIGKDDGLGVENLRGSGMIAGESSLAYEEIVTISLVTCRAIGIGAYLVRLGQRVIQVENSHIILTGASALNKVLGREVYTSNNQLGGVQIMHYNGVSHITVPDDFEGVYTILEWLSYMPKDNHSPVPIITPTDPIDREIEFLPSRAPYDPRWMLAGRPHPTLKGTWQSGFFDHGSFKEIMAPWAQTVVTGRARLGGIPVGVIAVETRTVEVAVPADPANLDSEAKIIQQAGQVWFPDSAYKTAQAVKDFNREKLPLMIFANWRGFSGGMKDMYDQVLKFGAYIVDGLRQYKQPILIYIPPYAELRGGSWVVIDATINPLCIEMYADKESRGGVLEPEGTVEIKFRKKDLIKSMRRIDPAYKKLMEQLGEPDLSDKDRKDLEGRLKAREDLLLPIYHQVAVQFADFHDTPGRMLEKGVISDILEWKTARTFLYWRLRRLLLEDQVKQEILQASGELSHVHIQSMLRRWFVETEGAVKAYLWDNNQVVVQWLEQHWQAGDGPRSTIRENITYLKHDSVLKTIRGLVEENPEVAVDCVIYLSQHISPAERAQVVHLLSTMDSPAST
smiles,measurement,setting,value
"CCN1CCC(n2c(=O)c3c(C)c(-n4nccn4)sc3n(C[C@H](OC3CCOCC3)c3cc(F)ccc3OC)c2=O)C1=O (stereo partly drawn) [Compound I-11, 3-(1-ethyl-2-oxopyrrolidin-3-yl)-1-((R)-2-(5-fluoro-2-methoxyphenyl)-2-((tetrahydro-2H-pyran-4-yl)oxy)ethyl)-5-methyl-6-(2H-1,2,3-triazol-2-yl)thieno[2,3-d]pyrimidine-2,4(1H,3H)-dione]",IC50,Human ACC2,2 to 10 nM
same,MIC,Candida glabrata,> 4.1 µg/mL
same,MIC,Candida tropicalis,0.25 to 1 µg/mL
same,MIC,Aspergillus fumigatus; [8],0.25 to 1 µg/mL
same,MIC,Aspergillus fumigatus; [9],0.25 to 1 µg/mL
"COc1ccc(F)cc1[C@H](Cn1c(=O)n(C2CCN(C(C)C)C2=O)c(=O)c2c(C)c(-n3nccn3)sc21)OC1CCOCC1 (stereo partly drawn) [Compound I-12, 1-((R)-2-(5-fluoro-2-methoxyphenyl)-2-((tetrahydro-2H-pyran-4-yl)oxy)ethyl)-3-(1-isopropyl-2-oxopyrrolidin-3-yl)-5-methyl-6-(2H-1,2,3-triazol-2-yl)thieno[2,3-d]pyrimidine-2,4(1H,3H)-dione]",IC50,Human ACC2,2 to 10 nM
same,MIC,C. albicans ATCC 90028,0.25 to 1 µg/mL
same,MIC,C. krusei ATCC 6258,0.25 to 1 µg/mL
same,MIC,[1],0.25 to 1 µg/mL
same,MIC,Candida glabrata,> 4.1 µg/mL
same,MIC,Candida tropicalis,0.25 to 1 µg/mL
same,MIC,Aspergillus fumigatus; [8],0.25 to 1 µg/mL
same,MIC,Aspergillus fumigatus; [9],0.25 to 1 µg/mL
"COc1ccc(F)cc1[C@H](Cn1c(=O)n([C@H]2CCNC2=O)c(=O)c2c(C)c(-n3nccn3)sc21)OCCC#N [Compound I-106, 3-((R)-1-(5-fluoro-2-methoxyphenyl)-2-(5-methyl-2,4-dioxo-3-((S)-2-oxopyrrolidin-3-yl)-6-(2H-1,2,3-triazol-2-yl)-3,4-dihydrothieno[2,3-d]pyrimidin-1(2H)-yl)ethoxy)propanenitrile]",Barley Powdery Mildew Control at 10 ppm,[2],D (provided a compound having <25% control of barley powdery mildew)
same,IC50,Human ACC2,10 to 100 nM
same,MIC,C. albicans ATCC 90028,2.1 to 4 µg/mL
same,MIC,C. krusei ATCC 6258,2.1 to 4 µg/mL
same,MIC,[1],2.1 to 4 µg/mL
same,IC90,Botrtyis cinerea (Bc),2 µg/mL
same,IC90,[3],> 50 µg/mL
same,IC90,Diplodia maydis (Dm),> 50 µg/mL
same,IC90,[4],2 µg/mL
same,IC90,[5],10 µg/mL
same,IC90,[6],> 50 µg/mL
same,IC90,Rhizoctonia solani (Rs),2 µg/mL
same,IC90,Septoria tritici (St),> 50 µg/mL
same,pest or weed control at 50 ppm,[7],25 to 49%
same,IC50,Fungal ACC2,0.7 to 2 nM
"COc1ccc(F)cc1[C@H](Cn1c(=O)n([C@H]2CCCNC2=O)c(=O)c2c(C)c(-n3nccn3)sc21)OCCC#N [Compound I-110, 3-((R)-1-(5-fluoro-2-methoxyphenyl)-2-(5-methyl-2,4-dioxo-3-((S)-2-oxopiperidin-3-yl)-6-(2H-1,2,3-triazol-2-yl)-3,4-dihydrothieno[2,3-d]pyrimidin-1 (2H)-yl)ethoxy)propanenitrile]",Barley Powdery Mildew Control at 10 ppm,[2],D (provided a compound having <25% control of barley powdery mildew)
same,IC50,Human ACC2,10 to 100 nM
same,MIC,C. albicans ATCC 90028,2.1 to 4 µg/mL
same,MIC,C. krusei ATCC 6258,2.1 to 4 µg/mL
same,MIC,[1],2.1 to 4 µg/mL
same,IC90,Botrtyis cinerea (Bc),2 µg/mL
same,IC90,[3],10 µg/mL
same,IC90,Diplodia maydis (Dm),> 50 µg/mL
same,IC90,[4],2 µg/mL
same,IC90,[5],10 µg/mL
same,IC90,[6],> 50 µg/mL
same,IC90,Rhizoctonia solani (Rs),2 µg/mL
same,IC90,Septoria tritici (St),> 50 µg/mL
same,pest or weed control at 50 ppm,[7],50 to 69%
same,IC50,Fungal ACC2,0.7 to 2 nM
"COc1ccc(F)cc1[C@H](Cn1c(=O)n([C@@H]2CCCNC2=O)c(=O)c2c(C)c(-n3nccn3)sc21)OCCC#N [Compound I-111, 3-((R)-1-(5-fluoro-2-methoxyphenyl)-2-(5-methyl-2,4-dioxo-3-((R)-2-oxopiperidin-3-yl)-6-(2H-1,2,3-triazol-2-yl)-3,4-dihydrothieno[2,3-d]pyrimidin-1(2H)-yl)ethoxy)propanenitrile]",Barley Powdery Mildew Control at 10 ppm,[2],C (provided a compound having from 25 to 49% control of barley powdery mildew)
same,IC50,Human ACC2,2 to 10 nM
same,MIC,C. albicans ATCC 90028,2.1 to 4 µg/mL
same,MIC,C. krusei ATCC 6258,2.1 to 4 µg/mL
same,MIC,[1],2.1 to 4 µg/mL
same,IC90,Botrtyis cinerea (Bc),2 µg/mL
same,IC90,[3],10 µg/mL
same,IC90,Diplodia maydis (Dm),10 µg/mL
same,IC90,[4],2 µg/mL
same,IC90,[5],10 µg/mL
same,IC90,[6],> 50 µg/mL
same,IC90,Rhizoctonia solani (Rs),2 µg/mL
same,IC90,Septoria tritici (St),> 50 µg/mL
same,pest or weed control at 50 ppm,[7],50 to 69%
same,IC50,Fungal ACC2,0.7 to 2 nM

# — patent US20190330224A1, “ACC INHIBITORS AND USES THEREOF” (Gilead Apollo, LLC, priority 2015, published 2019)
